24 compounds from patent US12428380B2 (PSYLO PTY LTD, priority 2023, dated 2025) can be followed below.

Holding throughout (assay type): cell-based
One assay addresses T1, 5-HT2C (Homo sapiens, UniProt P28335).
T1 construct: host or cells: HEK293
T1 sequence (P28335 33-458): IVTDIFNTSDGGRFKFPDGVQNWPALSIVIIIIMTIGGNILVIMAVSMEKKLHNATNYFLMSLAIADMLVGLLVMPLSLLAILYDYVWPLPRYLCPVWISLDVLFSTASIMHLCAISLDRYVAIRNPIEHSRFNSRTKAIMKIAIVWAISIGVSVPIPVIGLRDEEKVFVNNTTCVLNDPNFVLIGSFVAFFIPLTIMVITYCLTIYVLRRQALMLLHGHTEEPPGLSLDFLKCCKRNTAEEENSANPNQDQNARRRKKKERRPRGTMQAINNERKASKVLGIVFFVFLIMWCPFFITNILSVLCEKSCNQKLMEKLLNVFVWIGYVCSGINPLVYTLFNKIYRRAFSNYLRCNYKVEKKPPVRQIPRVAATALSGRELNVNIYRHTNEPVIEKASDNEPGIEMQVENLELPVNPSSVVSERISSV
Nature of the assay: FLIPR Ca2+ flux functional assay, 5-HT2C (HEK293). Conditions: HEK293 cells expressing 5-HT2C; for Emax: HEK293, agonist activity; for EC50: agonist activity.

A further assay concerns the target T2, 5-HT2A (Homo sapiens, UniProt P28223).
T2 construct: host or cells: HEK293
Nature of the assay: FLIPR Ca2+ flux functional assay, 5-HT2A (HEK293). To be noted: HEK293 cells expressing 5-HT2A; for Emax: HEK293, agonist activity; for EC50: agonist activity. (A change in cytosolic calcium serves as a functional read-out for many receptors and channels.)

The target of a further assay is T3, 5-HT2B (Homo sapiens, UniProt P41595).
T3 construct: host or cells: CHO-K1
T3 sequence (P41595 whole entry, species assumed): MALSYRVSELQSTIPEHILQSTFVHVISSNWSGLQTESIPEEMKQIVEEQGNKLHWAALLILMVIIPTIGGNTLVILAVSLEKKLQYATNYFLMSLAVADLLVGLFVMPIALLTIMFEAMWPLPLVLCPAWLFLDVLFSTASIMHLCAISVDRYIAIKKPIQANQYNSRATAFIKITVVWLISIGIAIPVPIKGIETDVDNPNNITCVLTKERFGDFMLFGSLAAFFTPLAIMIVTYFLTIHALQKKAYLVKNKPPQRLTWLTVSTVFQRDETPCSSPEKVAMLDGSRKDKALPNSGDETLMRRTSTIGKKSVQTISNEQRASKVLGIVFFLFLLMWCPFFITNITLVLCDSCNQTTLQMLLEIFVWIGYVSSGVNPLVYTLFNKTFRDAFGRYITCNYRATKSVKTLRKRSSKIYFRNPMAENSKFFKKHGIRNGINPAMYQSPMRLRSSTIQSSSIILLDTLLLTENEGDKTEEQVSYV
Nature of the assay: Activation in a similar Ca2+ flux assay at a single concentration, 5-HT2B. To be noted: head prints 10 µM. Here is the method:
Activity at 5-HT2A, 5-HT2B and 5-HT2C receptors was determined using a FLIPR Ca2+ flux assay at WuXi AppTec Co. Ltd. (Hong Kong) Discovery Biology Unit according to their standard protocols. Briefly, stably transfected cells expressing the receptor of interest (HEK293 for 5-HT2A and 5-HT2C; CHO-K1 for 5-HT2B) were grown and plated in a 384 well plate and incubated at 37° C. and 5% CO2 overnight. A 250 mM stock solution of probenecid in FLIPR calcium assay buffer (10 mL) was freshly prepared and combined with a fluorescent dye (Fluo-4 Direct) to give a final assay concentration of 2.5 mM. Reference compounds were 4-fold serially diluted and the screening compounds were 3-fold serially diluted in 100% DMSO for 10 points using Agilent Bravo, and 750 nL was added to a 384 well compound plate using Echo along with 30 μL assay buffer. The fluorescent dye was then added to the assay plate along with assay buffer to a final volume of 40 μL. The cell plate was incubated for 50 min at 37° C. and 5% CO2 and placed into the FLIPR Tetra along with the compound plate. 10 μL of references and compounds were then transferred from the compound plate into the cell plate and the fluorescent signal was read.
Activation data are provided in a similar assay tested at a single 10 μM concentration.

T2 sequence (P28223 whole entry): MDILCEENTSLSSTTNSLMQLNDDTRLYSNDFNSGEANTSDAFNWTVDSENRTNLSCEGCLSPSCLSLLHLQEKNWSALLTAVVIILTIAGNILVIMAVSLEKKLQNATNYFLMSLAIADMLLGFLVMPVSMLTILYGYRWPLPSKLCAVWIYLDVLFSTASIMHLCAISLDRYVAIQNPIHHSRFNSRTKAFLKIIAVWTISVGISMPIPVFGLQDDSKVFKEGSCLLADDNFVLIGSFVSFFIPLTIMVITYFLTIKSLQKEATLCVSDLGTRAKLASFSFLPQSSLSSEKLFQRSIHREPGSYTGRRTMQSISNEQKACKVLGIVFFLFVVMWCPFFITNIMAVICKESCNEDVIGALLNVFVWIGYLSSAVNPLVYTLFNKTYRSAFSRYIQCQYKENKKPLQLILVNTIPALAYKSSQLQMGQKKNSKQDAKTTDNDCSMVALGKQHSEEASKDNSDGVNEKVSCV

As to `COc1c(F)ccc2[nH]nc(CCN(C)C)c12` [Example A1, 2-(5-fluoro-4-methoxy-1H-indazol-3-yl)-N,N-dimethylethan-1-amine], at 5-HT2C, the Emax was 84% and the EC50 was found to be 8.21 nM. In addition, at 5-HT2A, the Emax worked out at 82% and the EC50 is 28.3 nM. Besides, at 5-HT2B, the “5-HT2B % Activation @ 10 µM” value was 21%.
At 5-HT2C, `CCN(C)CCc1n[nH]c2ccc(F)c(OC)c12` [Example A2, N-ethyl-2-(5-fluoro-4-methoxy-1H-indazol-3-yl)-N-methylethan-1-amine] came in with an Emax of 86% and an EC50 of 15.5 nM. In addition, at 5-HT2A, the Emax amounted to 87% and the midpoint of the response, the EC50, lay at 31.5 nM. For the same compound, at 5-HT2B, the “5-HT2B % Activation @ 10 µM” value was 57%.
For the compound `COc1c(F)ccc2[nH]nc(CCN(C)C(C)C)c12` [Example A3, N-(2-(5-fluoro-4-methoxy-1H-indazol-3-yl)ethyl)-N-methylpropan-2-amine], the values for the Emax on 5-HT2C and at 5-HT2A were 80% and 76%, respectively. Further, the EC50 is 170 nM at 5-HT2C and 96.5 nM at 5-HT2A. In addition, the “5-HT2B % Activation @ 10 µM” value at 5-HT2B worked out at 17%.
On to `COc1c(F)ccc2[nH]nc(CCN(C)C3CC3)c12` [Example A4, N-(2-(5-fluoro-4-methoxy-1H-indazol-3-yl)ethyl)-N-methylcyclopropanamine], for which, at 5-HT2C, the Emax stood at 91% and the EC50 came out at 17.1 nM. Further, at 5-HT2A, the maximal effect (Emax) turned out to be 67% and the response was half-maximal at 62.7 nM (EC50). At 5-HT2B, the “5-HT2B % Activation @ 10 µM” value is 2%.
On 5-HT2C, `CCN(C)CCc1n[nH]c2cc(F)c(OC)cc12` [Example A6, N-ethyl-2-(6-fluoro-5-methoxy-1H-indazol-3-yl)-N-methylethan-1-amine] displayed an Emax of 101% and an EC50 of 786 nM. At 5-HT2A, the Emax is 86% and the EC50 is 110 nM. The “5-HT2B % Activation @ 10 µM” value at 5-HT2B is listed as 40%.
On to `COc1cc2c(CCN(C)C(C)C)n[nH]c2cc1F` [Example A7, N-(2-(6-fluoro-5-methoxy-1H-indazol-3-yl)ethyl)-N-methylpropan-2-amine], for which, at 5-HT2C, the Emax was 67% and the midpoint of the response, the EC50, lay at 4180 nM. In addition, on 5-HT2A, the Emax came to 63% and the half-maximal effective concentration (EC50) came to 318 nM. Besides, the “5-HT2B % Activation @ 10 µM” value on 5-HT2B is reported as 7%.
The corresponding values for `COc1cc2c(CCN(C)C3CC3)n[nH]c2cc1F` [Example A8, N-(2-(6-fluoro-5-methoxy-1H-indazol-3-yl)ethyl)-N-methylcyclopropanamine] are 102%, 507 nM, 71%, 208 nM and 6%.
In the case of `COc1ccc2[nH]nc(CCN(C)C)c2c1F` [Example A9, 2-(4-fluoro-5-methoxy-1H-indazol-3-yl)-N,N-dimethylethan-1-amine], at 5-HT2C, the Emax is 73% and the EC50 is 1100 nM. Besides, on 5-HT2A, the Emax was found to be 75% and the midpoint of the response, the EC50, lay at 809 nM. For the same compound, the “5-HT2B % Activation @ 10 µM” value on 5-HT2B was found to be 0%.
The corresponding values for `CCN(C)CCc1n[nH]c2ccc(OC)c(F)c12` [Example A10, N-ethyl-2-(4-fluoro-5-methoxy-1H-indazol-3-yl)-N-methylethan-1-amine] are 68%, 2860 nM, 69%, 831 nM and 1%.
Take `COc1ccc2[nH]nc(CCN(C)C(C)C)c2c1F` [Example A11, N-(2-(4-fluoro-5-methoxy-1H-indazol-3-yl)ethyl)-N-methylpropan-2-amine]: the values for the maximum response (Emax) on 5-HT2C and on 5-HT2A were 22% and 64%, respectively. Moreover, the EC50 was > 10000 nM at 5-HT2C and 1380 nM at 5-HT2A. Besides, the “5-HT2B % Activation @ 10 µM” value on 5-HT2B is recorded as 0%.
At 5-HT2C, `CN(C)CCc1n[nH]c2cccc(F)c12` [Example A13, 2-(4-fluoro-1H-indazol-3-yl)-N,N-dimethylethan-1-amine] displayed an Emax of 48% and an EC50 of 944 nM. In addition, on 5-HT2A, the Emax was found to be 55% and a half-maximal response (EC50) required 2050 nM. Also, the “5-HT2B % Activation @ 10 µM” value at 5-HT2B is on record as 0%.
The corresponding values for `CN(C)CCc1n[nH]c2ccc(F)cc12` [Example A17, 2-(5-fluoro-1H-indazol-3-yl)-N,N-dimethylethan-1-amine] are 80%, 34 nM, 82%, 167 nM and 25%.
The corresponding values for `CCN(C)CCc1n[nH]c2ccc(F)cc12` [Example A18, N-ethyl-2-(5-fluoro-1H-indazol-3-yl)-N-methylethan-1-amine] are 79%, 128 nM, 55%, 264 nM and 16%.
`CC(C)N(C)CCc1n[nH]c2ccc(F)cc12` [Example A19, N-(2-(5-fluoro-1H-indazol-3-yl)ethyl)-N-methylpropan-2-amine]: the results for the Emax on 5-HT2C and on 5-HT2A were 69% and 25%, respectively. Moreover, the EC50 at 5-HT2C was 1520 nM; at 5-HT2A it was > 10000 nM. In addition, the “5-HT2B % Activation @ 10 µM” value on 5-HT2B stood at 1%.
The corresponding values for `CN(CCc1n[nH]c2ccc(F)cc12)C1CC1` [Example A20, N-(2-(5-fluoro-1H-indazol-3-yl)ethyl)-N-methylcyclopropanamine] are 83%, 45%, 206 nM, 419 nM and 1%.
At 5-HT2C, `CCN(C)CCc1n[nH]c2cc(F)cc(F)c12` [Example A29, 2-(4,6-difluoro-1H-indazol-3-yl)-N-ethyl-N-methylethan-1-amine] came in with an Emax of 70% and an EC50 of 1480 nM. At 5-HT2A, this compound yielded an Emax of 33% and an EC50 of 687 nM. Further, the “5-HT2B % Activation @ 10 µM” value at 5-HT2B was 0%.
In the case of `COc1ccccc1CNCCc1n[nH]c2cc(F)cc(F)c12` [Example A33, 2-(4,6-difluoro-1H-indazol-3-yl)-N-(2-methoxybenzyl)ethan-1-amine], at 5-HT2C, the Emax came to 90% and the response was half-maximal at 159 nM (EC50). For the same compound, on 5-HT2A, the Emax was 91% and the EC50 stood at 14.4 nM. Besides, the “5-HT2B % Activation @ 10 µM” value at 5-HT2B is listed as 23%.
`COc1cc(F)cc2[nH]nc(CCN3CCC3)c12` [Example A41, 3-(2-(azetidin-1-yl)ethyl)-6-fluoro-4-methoxy-1H-indazole]: the Emax on 5-HT2C was 65%; at 5-HT2A, 78%. Moreover, the EC50 was determined as 1420 nM on 5-HT2C and 1080 nM at 5-HT2A.
The corresponding values for `COc1cc(F)cc2[nH]nc(CCN3CCCC3)c12` [Example A42, 6-fluoro-4-methoxy-3-(2-(pyrrolidin-1-yl)ethyl)-1H-indazole] are 89%, 81%, 944 nM and 697 nM.
The corresponding values for `COc1ccc(F)c2[nH]nc(CCN3CCCC3)c12` [Example A48, 7-fluoro-4-methoxy-3-(2-(pyrrolidin-1-yl)ethyl)-1H-indazole] are 67%, 70%, 556 nM and 533 nM.
The corresponding values for `COc1cc(F)c2[nH]nc(CCN3CCCC3)c2c1` [Example A54, 7-fluoro-5-methoxy-3-(2-(pyrrolidin-1-yl)ethyl)-1H-indazole] are 38%, 75%, 3260 nM and 1380 nM.
Consider `COc1cc2c(CCN3CC4CC4C3)n[nH]c2cc1F` (stereo not drawn) [Example A61, 3-(2-(3-azabicyclo[3.1.0]hexan-3-yl)ethyl)-6-fluoro-5-methoxy-1H-indazole], for which, at 5-HT2C, the Emax was 21% and the EC50 was > 10000 nM. On 5-HT2A, the Emax worked out at 67% and the EC50 worked out at 1580 nM.
The corresponding values for `Fc1ccc2[nH]nc(CCN3CCC3)c2c1F` [Example A72, 3-(2-(azetidin-1-yl)ethyl)-4,5-difluoro-1H-indazole] are 37%, 973 nM, 78% and 1350 nM.
On to `COc1cc2c(CCN3CCC4CC43)nn(C)c2cc1F` (stereo not drawn) [Example A75, 3-(2-(2-azabicyclo[3.1.0]hexan-2-yl)ethyl)-6-fluoro-5-methoxy-1-methyl-1H-indazole], for which, at 5-HT2A, the Emax came out at 77% and the EC50 was 63.4 nM.

As usually defined, the Emax is the greatest response seen or fitted, relative to the assay's reference. In general, EC50 refers to the concentration giving half of the maximal effect. A high value points to lower potency in that assay.
